Test [1] deals with HCT116 cells. The experiment in a line: ELISA screening of phage clones on HCT116 cells (cellular ELISA). Conditions: HCT116, cell line panel. The format is binding, human. Here is the method: (§1) The selected phages were further identified by ELISA screening. 1×10^4 cells were seeded into each well of 96-well ELISA plates (Falcon, Calif., USA) overnight and were fixed with 2% paraformaldehyde or methanol/acetone (1:1) for 10 min at RT. The plates were washed twice with PBS and were blocked with 1% BSA in PBS (w/v) for 30 min at RT. Then individual phage clones were added and incubated for 1 hr at RT. Following washing three times with PBS, the plates were incubated with horseradish peroxidase (HRP)-conjugated mouse anti-M13 phage antibody (GE Healthcare) at 1:2000 dilution for 1 hr at RT. The plates were washed three times with PBS again, and were subsequently incubated with the peroxidase substrate o-phenylenediamine dihydrochloride (OPD; Sigma) plus H2O2. The reaction was terminated by 3 N HCl, and the absorbance was measured using microplate reader (Model 680, BioRad) at 490 nm.
On the technique in general: ELISA stands for enzyme-linked immunosorbent assay.

Test [2] has as its system HCT116 cells. The experiment in a line: Flow cytometry surface binding of phage clones. Further details: species or system human. The procedure:
(§2) Cells were grown to 70-80% confluence and were harvested with 10 mM EDTA in PBS. Peripheral blood mononuclear cells were prepared by using Ficoll-Paque Plus density gradient separation. After washing and suspending the cells with FACS buffer (PBS containing 1% fetal bovine serum), the cells were incubated for 1 hr at 4° C. with 5×10^9, 1×10^9 cfu individual phage clones or control phage, respectively. After washing twice with FACS buffer, cells were incubated with mouse anti-M13 monoclonal antibody (GE Healthcare) at 1:2000 dilution for 1 hr followed by 30 min with phycoerythrin (PE)-conjugated goat anti-mouse secondary antibody (Jackson ImmunoResearch) at 1:250 dilution at 4° C. The emission fluorescence signals were measured using FACSCantoll (Becton Dickinson) and were analyzed by FlowJo software.
A general note: In flow cytometry, cells or beads pass a laser one at a time.

The next test concerns HT29. Nature of the test: Flow cytometry surface binding of phage clones. Further details: species or system human. The procedure:
as §2

In a further test the test system is LS174T. Nature of the test: Flow cytometry surface binding of phage clones. Further details: species or system human. The procedure:
as §2

For a further test, the system named is SW620. Nature of the test: Flow cytometry surface binding of phage clones. Further details: species or system human. The procedure: as §2
Test [3] deals with peripheral blood mononuclear cells (PBMC). Nature of the test: Flow cytometry binding of phage clones to normal cells. Conditions: human PBMC. The procedure: as §2
In a further test the test system is HCT116 xenografts. The experiment in a line: In vivo tumor homing, phage titer in tumor and organs. The following applies: 2×10^11 pfu i.v., PBS perfusion; vs brain, lungs, heart. Details: species or system mice. The procedure: Non-obese diabetic-severe combined immunodeficiency (NOD/SCID) mice were injected subcutaneously (s.c.) into the dorsolateral flank with 5×10^6 HCT116 cells. When the xenograft tumor size reached 300±50 mm^3, the mice were injected intravascularly (i.v.) with 2×10^11 pfu of the targeting phage or control phage M13KO7. Seven min after injection, the mice were sacrificed and perfused through the heart with 50 mL of PBS to wash unbound phages. After perfusion, xenograft tumor and mouse organs were taken out, washed three times with cold PBS, and cut into pans, with some of them homogenized. The phages bound to each tissue sample were recovered by log-phase Escherichia coli ER2738 culture and were titered on LB/IPTG/X-Gal agar plates. In peptide competitive inhibition experiments, 2×10^9 pfu of phage was co-injected with 100 μg of corresponding peptide or an unrelated control peptide.
To investigate the targeting ability of the selected phage clones in vivo, mice bearing HCT116 xenografts (300 mm^3) were injected with 2×10^11 pfu of either the selected phages or control phage through the tail vein. Phages were circulated and then were perfused with PBS buffer to wash out non-specific binders in circulation. After perfusion, we recovered and determined the […] of phage in tumor masses and normal organs.

The next test has as its system B16-F10. The experiment in a line: Cellular ELISA of phage clones. In kind it is binding, mouse. The procedure: as §1, with “nm. To evaluate the binding activities of the three selected phage clones to various human cancer cell lines, cellular ELISA was performed to detect sixteen types of human cancer cell lines, including A498, HTB-10, B16-F10, SKOV3, PC-3, U2OS, 1112SK, […], SAS, H460, MIA Paca-2, HCT116, HUVAC, CL1-5, Mahlavu, and MDA-MB-231.” for “nm.”

The target in another test is T1, alpha-enolase (ENO1) (Homo sapiens, UniProt P06733).
T1 construct: endogenous in cells; host or cells: HCT116
T1 sequence (P06733 whole entry): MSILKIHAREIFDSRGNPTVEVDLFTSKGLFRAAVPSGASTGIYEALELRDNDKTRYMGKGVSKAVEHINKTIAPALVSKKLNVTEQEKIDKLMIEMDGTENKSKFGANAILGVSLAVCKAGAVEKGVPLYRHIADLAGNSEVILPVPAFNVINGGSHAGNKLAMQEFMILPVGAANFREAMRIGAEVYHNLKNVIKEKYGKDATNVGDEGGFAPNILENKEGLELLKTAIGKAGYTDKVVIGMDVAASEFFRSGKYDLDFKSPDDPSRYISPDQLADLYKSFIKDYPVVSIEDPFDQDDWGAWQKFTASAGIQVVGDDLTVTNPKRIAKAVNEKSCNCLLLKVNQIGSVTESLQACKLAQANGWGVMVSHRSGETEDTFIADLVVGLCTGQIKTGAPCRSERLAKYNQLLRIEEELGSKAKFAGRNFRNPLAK
The experiment in a line: Flow cytometry binding of HCT74 phage after ENO1 knockdown or overexpression. The text has this: To further confirm alpha-enolase was the target proteins of the pHCT74 peptide, correlation between the binding activity of HCT74 phage and ENO1 expression was examined. We established stable cell lines expressing shRNAs targeting ENO1 gene (FIG. 4E) and tested the binding activity of HCT74 phage by flow cytometry. The binding activity of HCT74 phage was reduced after ENO1 gene knockdown (FIG. 4F). Instead, after transient overexpression of ENO1 gene, the binding activity of HCT74 phage was increased (FIG. 4G). […] In addition, HCT74 phage specific binding to the alpha enolase protein was also confirmed by direct ELISA assay (FIG. 4H).

Test [4] has as its target recombinant α-enolase protein (Homo sapiens, UniProt P06733). Nature of the test: Direct ELISA of HCT74 phage on recombinant α-enolase protein. The format is binding. Conditions: plate coated with 2 ug/mL α-enolase. Here is the method: (A) Schematic diagram of the experimental design. (B) The binding characteristics of biotinylated pHCT74 peptide to HCT116 cells were evaluated by flow cytometry. (C) Affinity cross-linking of biotinylated pHCT74 peptide to the surface proteins of HCT116 cells, cross-linked proteins were cleaved from streptavidin dynabeads using 2-mercaptoethanol. […] (D) The peptide sequence (SEQ ID NO: 22) of target bands were deduced by tandem mass spectrometry. (E) Stable knockdown of ENO1 gene by introducing specific shRNA (ENO1-A, B, C and D shRNA) into HCT116 cells through infection with viral vectors. (F) The binding activity of HCT74 phage was reduced after α-enolase gene knockdown (G) The binding activity of HCT74 phage was enhanced when α-enolase was overexpressed. (H) Binding affinity of the HCT74 phage to recombinant α-enolase protein. The 96-well plate was pre-coated with 2 ug/mL α-enolase protein and incubated with increasing concentrations of HCT74 phage and then with HRP conjugated anti-M13 antibody. Data are presented as mean±standard deviation.
To further confirm alpha-enolase was the target proteins of the pHCT74 peptide, correlation between the binding activity of HCT74 phage and ENO1 expression was examined. We established stable cell lines expressing shRNAs targeting ENO1 gene (FIG. 4E) and tested the binding activity of HCT74 phage by flow cytometry. […]

Chain of recombinant α-enolase protein (P06733 whole entry): as above

For the sequence SSMDIVLRAPLM [HCT74], the “binding by cellular ELISA” value in the test with HCT116 cells [1] and with B16-F10 was “highly specific binding” throughout. The “cell surface-binding activity by flow cytometry” value in the test with HCT116 cells [2] is “high binding affinity”. Besides, the “binding activity by FACS” value in the test with HT29 is given as “high binding affinity”; in the test on LS174T, “moderate affinity”; in the test with SW620, “high binding affinity”. Also, in test [3], the “binding activity to PBMC (normal cells) by FACS” value was “not to normal cells”. Moreover, in the test with HCT116 xenografts, the “phage accumulation in tumor mass vs normal organs (phage titer)” value is “significantly accumulated in the tumor mass”. Also, the “binding activity after ENO1 gene knockdown” value at alpha-enolase (ENO1) (HCT116 cells with shRNAs targeting ENO1) is “reduced”. The “binding activity after transient overexpression of ENO1 gene” value at alpha-enolase (ENO1) (flow cytometry) is “increased”. In [4], the “specific binding to alpha enolase protein” value is “confirmed”.

Source of the values: US9393316B2, “Cancer targeting peptides for enhancing anti-cancer drug delivery and therapeutic efficiencies” (priority 2014, dated 2016).
